The text below walks through data of BindingDB's records for doi:10.1016/j.bmcl.2021.128422 (Tohoku Medical and Pharmaceutical University, 2021).

Each structure is given as a SMILES string.

Chain of Maltase-glucoamylase (O43451 whole entry): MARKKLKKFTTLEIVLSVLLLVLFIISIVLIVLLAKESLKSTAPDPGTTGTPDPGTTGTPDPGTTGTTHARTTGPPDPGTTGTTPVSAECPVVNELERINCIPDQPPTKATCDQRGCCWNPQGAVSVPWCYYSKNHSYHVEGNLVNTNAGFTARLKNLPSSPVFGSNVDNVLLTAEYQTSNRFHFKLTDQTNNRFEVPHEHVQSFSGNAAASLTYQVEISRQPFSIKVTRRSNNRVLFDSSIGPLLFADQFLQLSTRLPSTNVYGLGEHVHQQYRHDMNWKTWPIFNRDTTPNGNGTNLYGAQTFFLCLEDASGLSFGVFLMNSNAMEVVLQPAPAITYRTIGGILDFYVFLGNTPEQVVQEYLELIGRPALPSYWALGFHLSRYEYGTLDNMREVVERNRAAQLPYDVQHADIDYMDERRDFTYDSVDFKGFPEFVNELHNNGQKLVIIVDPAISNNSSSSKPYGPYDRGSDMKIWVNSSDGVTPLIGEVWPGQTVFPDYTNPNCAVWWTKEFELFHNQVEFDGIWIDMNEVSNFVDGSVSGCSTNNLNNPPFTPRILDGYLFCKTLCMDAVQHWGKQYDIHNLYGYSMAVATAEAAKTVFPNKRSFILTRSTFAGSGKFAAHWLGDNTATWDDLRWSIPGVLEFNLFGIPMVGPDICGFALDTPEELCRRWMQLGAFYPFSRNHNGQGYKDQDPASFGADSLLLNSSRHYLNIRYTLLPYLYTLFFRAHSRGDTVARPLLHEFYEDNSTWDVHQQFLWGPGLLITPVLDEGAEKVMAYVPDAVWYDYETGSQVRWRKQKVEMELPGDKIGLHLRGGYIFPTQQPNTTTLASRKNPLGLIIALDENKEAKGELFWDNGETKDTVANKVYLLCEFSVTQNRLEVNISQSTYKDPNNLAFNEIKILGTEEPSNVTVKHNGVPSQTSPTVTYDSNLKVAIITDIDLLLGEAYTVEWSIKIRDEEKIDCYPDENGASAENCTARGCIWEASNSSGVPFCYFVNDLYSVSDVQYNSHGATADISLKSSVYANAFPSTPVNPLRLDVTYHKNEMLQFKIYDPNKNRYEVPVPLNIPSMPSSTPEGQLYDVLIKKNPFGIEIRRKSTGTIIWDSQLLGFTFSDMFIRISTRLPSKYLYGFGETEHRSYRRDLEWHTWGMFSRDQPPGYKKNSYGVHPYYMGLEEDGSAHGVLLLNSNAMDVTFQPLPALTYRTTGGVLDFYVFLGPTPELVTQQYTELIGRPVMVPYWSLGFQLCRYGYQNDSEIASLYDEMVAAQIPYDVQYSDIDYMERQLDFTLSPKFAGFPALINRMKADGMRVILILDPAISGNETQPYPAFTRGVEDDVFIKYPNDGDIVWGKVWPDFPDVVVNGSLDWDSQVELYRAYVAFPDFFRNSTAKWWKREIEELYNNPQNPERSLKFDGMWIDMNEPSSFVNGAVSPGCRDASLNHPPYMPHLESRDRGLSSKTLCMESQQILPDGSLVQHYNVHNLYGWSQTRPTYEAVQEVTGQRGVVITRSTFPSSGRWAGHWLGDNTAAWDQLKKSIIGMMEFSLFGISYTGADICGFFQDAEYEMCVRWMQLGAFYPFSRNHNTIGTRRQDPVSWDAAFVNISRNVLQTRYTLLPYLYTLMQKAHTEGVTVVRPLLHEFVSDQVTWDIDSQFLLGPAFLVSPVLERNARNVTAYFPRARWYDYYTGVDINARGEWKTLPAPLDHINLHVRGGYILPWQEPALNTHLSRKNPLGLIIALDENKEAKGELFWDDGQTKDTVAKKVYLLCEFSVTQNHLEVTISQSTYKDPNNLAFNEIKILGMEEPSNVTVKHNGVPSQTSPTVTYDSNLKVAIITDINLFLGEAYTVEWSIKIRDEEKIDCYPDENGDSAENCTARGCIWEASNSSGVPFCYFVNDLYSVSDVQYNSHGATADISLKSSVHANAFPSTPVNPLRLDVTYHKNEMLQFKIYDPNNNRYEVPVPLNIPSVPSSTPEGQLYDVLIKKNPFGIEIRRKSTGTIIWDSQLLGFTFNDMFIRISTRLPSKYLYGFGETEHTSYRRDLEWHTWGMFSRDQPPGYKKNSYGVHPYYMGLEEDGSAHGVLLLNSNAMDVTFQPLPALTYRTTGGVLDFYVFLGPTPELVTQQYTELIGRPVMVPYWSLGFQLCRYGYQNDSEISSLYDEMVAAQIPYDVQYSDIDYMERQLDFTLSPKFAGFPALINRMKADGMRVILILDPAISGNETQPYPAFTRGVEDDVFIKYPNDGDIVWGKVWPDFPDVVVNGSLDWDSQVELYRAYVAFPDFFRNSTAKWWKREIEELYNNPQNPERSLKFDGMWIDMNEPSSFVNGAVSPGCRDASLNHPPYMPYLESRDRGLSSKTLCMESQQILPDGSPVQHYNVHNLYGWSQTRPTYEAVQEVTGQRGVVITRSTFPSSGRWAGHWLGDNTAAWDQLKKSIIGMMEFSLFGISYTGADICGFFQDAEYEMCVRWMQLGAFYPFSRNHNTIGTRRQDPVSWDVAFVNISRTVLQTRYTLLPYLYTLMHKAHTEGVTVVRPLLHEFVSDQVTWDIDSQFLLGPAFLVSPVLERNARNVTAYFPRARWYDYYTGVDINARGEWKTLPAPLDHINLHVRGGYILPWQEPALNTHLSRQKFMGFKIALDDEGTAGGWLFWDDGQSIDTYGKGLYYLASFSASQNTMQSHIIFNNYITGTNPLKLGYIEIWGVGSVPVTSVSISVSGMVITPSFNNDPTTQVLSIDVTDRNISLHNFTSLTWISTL

This test concerns the target Maltase-glucoamylase (Homo sapiens, UniProt O43451). Nature of the test: Inhibition of alpha-glucosidase (unknown origin) using p-nitrophenyl-alpha-D-glucopyranoside as substrate incubated for 50 mins by microplate reader analysis.
In general, IC50 refers to the concentration needed to halve the response being measured. A low value points to higher potency. The compound `C=C1C(=O)O[C@@H]2/C=C(\C)[C@@H](O)C/C=C(\C)C[C@@H](OC(=O)/C(=C\C)COC(C)=O)[C@@H]12` registered an IC50 greater than 25 µM.
Compound `C=C1C(=O)O[C@@H]2/C=C(\C)CC/C=C(\C)C[C@@H](OC(=O)/C(=C\COC(C)=O)CO)[C@@H]12` displayed an IC50 greater than 29 µM.
Consider `C=C1C(=O)O[C@@H]2/C=C(\C)CC/C=C(\CO)C[C@@H](OC(=O)/C(C)=C/C)[C@@H]12`, for which the IC50 is greater than 25 µM.
Compound `C=C1C(=O)O[C@@H]2/C=C(\C)CC/C=C(\C)C[C@@H](OC(=O)/C(=C\C)CO)[C@@H]12` registered a 50% inhibitory concentration (IC50) greater than 29 µM.
In the case of `C=C1C(=O)O[C@@H]2/C=C(\C)C[C@H](O)/C=C(\C)C[C@@H](OC(=O)/C(=C\C)CO)[C@@H]12` it was greater than 28 µM.
To `C=C1C(=O)O[C@@H]2/C=C(\C)C[C@H](O)/C=C(\C)C[C@@H](OC(=O)/C(=C\C)COC(C)=O)[C@@H]12` belongs greater than 25 µM.
In the case of `C=C1C(=O)O[C@@H]2/C=C(\C)CC/C=C(\C)C[C@@H](OC(=O)/C(=C/C)CO)[C@@H]12` it was greater than 29 µM; in that of `C=C1C(=O)O[C@@H]2/C=C(\C)CC/C=C(\C)C[C@@H](OC(=O)/C(=C/C)COC(C)=O)[C@@H]12`, greater than 25 µM; in that of `C=C1C(=O)O[C@@H]2/C=C(\C)CC/C=C(\C)C[C@@H](OC(=O)/C(=C/CO)CO)[C@@H]12`, greater than 28 µM.
`O=c1c(O)c(-c2ccc(O)c(O)c2)oc2cc(O)cc(O)c12` [2-(3,4-dihydroxyphenyl)-3,5,7-trihydroxy-chromone;hydrate] registered an IC50 of 10.8 µM.
